In patent US20190119298A1, “FUSED 3-PHENYLTETRAMIC ACID DERIVATIVES HAVING HERBICIDAL ACTION” (Bayer CropScience Aktiengesellschaft, priority 2016, published 2019):

How the values were obtained:
Type in all cases: in vivo
Avena fatua [1] = experiment: Pre-emergence herbicidal effect; settings: 320 g/ha, scored visually after 3 weeks vs untreated controls, 100% = plants have died
Source text: (§1) Seeds of monocotyledonous and dicotyledonous weed plants and crop plants are laid out in sandy loam soil in wood-fibre pots and covered with soil. The compounds of the invention, formulated in the form of wettable powders (WP) or as emulsion concentrates (EC), are then applied to the surface of the covering soil as aqueous suspension or emulsion at a water application rate equating to 600 to 800 L/ha with addition of 0.2% wetting agent. After the treatment, the pots are placed in a greenhouse and kept under good growth conditions for the trial plants. The damage to the test plants is scored visually after a test period of 3 weeks by comparison with untreated controls (herbicidal activity in percent (%): 100% activity=the plants have died, 0% activity=like control plants). AVEFA: Avena fatua

Echinochloa crus-galli [2] = experiment: Pre-emergence herbicidal effect; settings: 320 g/ha, scored visually after 3 weeks vs untreated controls, 100% = plants have died
Source text: as §1, with “ECHCG: Echinochloa crus-galli” for “AVEFA: Avena fatua”

Alopecurus myosuroides = experiment: Pre-emergence herbicidal effect; settings: 320 g/ha, scored visually after 3 weeks vs untreated controls, 100% = plants have died
Source text: as §1, with “ALOMY: Alopecurus myosuroides” for “AVEFA: Avena fatua”

Lolium multiflorum = experiment: Pre-emergence herbicidal effect; settings: 320 g/ha, scored visually after 3 weeks vs untreated controls, 100% = plants have died
Source text: as §1, with “LOLMU: Lolium multiflorum” for “AVEFA: Avena fatua”

Setaria viridis [3] = experiment: Pre-emergence herbicidal effect; settings: 320 g/ha, scored visually after 3 weeks vs untreated controls, 100% = plants have died
Source text: as §1, with “SETVI: Setaria viridis” for “AVEFA: Avena fatua”

Setaria viridis [4] = experiment: Post-emergence herbicidal effect; settings: one-leaf stage, 320 g/ha, assessed visually after about 3 weeks, 100% = plants have died
Description: (§2) SETVI: Setaria viridis Seeds of monocotyledonous and dicotyledonous weed and crop plants are laid out in sandy loam soil in wood-fibre pots, covered with soil and cultivated in a greenhouse under good growth conditions. 2 to 3 weeks after sowing, the test plants are treated at the one-leaf stage. The compounds of the invention, formulated in the form of wettable powders (WP) or as emulsion concentrates (EC), are then sprayed onto the green parts of the plants as aqueous suspension or emulsion at a water application rate equating to 600 to 800 L/ha with addition of 0.2% wetting agent. After the test plants have been left to stand in the greenhouse under optimal growth conditions for about 3 weeks, the action of the preparations is assessed visually in comparison to untreated controls (herbicidal action in percent (%): 100% activity=the plants have died, 0% activity=like control plants).

Echinochloa crus-galli [5] = experiment: Post-emergence herbicidal effect; settings: one-leaf stage, 320 g/ha, assessed visually after about 3 weeks, 100% = plants have died
Description: as §2, with “ECHCG: Echinochloa crus-galli” for “SETVI: Setaria viridis”

Avena fatua [6] = experiment: Post-emergence herbicidal effect; settings: one-leaf stage, 320 g/ha, assessed visually after about 3 weeks, 100% = plants have died
Description: as §2, with “AVEFA: Avena fatua” for “SETVI: Setaria viridis”

Structure (SMILES)	Pre-emergence action AVEFA (herbicidal activity in percent) (Avena fatua [1]) [%]	Pre-emergence action ECHCG (herbicidal activity in percent) (Echinochloa crus-galli [2]) [%]	Pre-emergence action ALOMY (herbicidal activity in percent) (Alopecurus myosuroides) [%]	Pre-emergence action LOLMU (herbicidal activity in percent) (Lolium multiflorum) [%]	Pre-emergence action SETVI (herbicidal activity in percent) (Setaria viridis [3]) [%]	Post-emergence effectiveness SETVI (herbicidal action in percent) (Setaria viridis [4]) [%]	Post-emergence effectiveness ECHCG (herbicidal action in percent) (Echinochloa crus-galli [5]) [%]	Post-emergence effectiveness AVEFA (herbicidal action in percent) (Avena fatua [6]) [%]
COC(=O)OC1=C(c2c(Cl)cc(C)cc2OC)C(=O)N2CCOCCC12 (centres unmarked) [Ib-1-21]	90	100	100	100	100	–	–	–
COC(=O)OC1=C(c2c(C)cc(C)cc2C)C(=O)N2CCCOCC12 (centres unmarked) [Ib-2-2]	–	–	–	–	–	90	90	–
COc1cc(C)cc(Cl)c1C1=C(OC(=O)C(C)(C)C)C2CCOCCN2C1=O (centres unmarked) [Ib-1-23]	90	100	100	100	100	–	–	–
CCc1cc(C)cc(CC)c1C1=C(O)C2=CCOCCN2C1=O [Ia-3-3]	–	–	80	100	–	100	100	–
Cc1cc(C)c(C2=C(O)C3=CCOCCN3C2=O)c(C)c1 [Ia-3-1]	–	–	–	–	–	–	90	80
CCOC(=O)OC1=C(c2c(C)cc(C)cc2CC)C(=O)N2CCOCC=C12 [Ib-3-6]	–	–	–	–	–	90	90	–
CCOC(=O)OC1=C(c2c(C)cc(C)cc2C)C(=O)N2CCCOCC12 (centres unmarked) [Ib-2-3]	–	–	–	–	–	90	90	–
COc1cc(C)cc(Cl)c1C1=C(OC(C)=O)C2CCOCCN2C1=O (centres unmarked) [Ib-1-24]	90	100	90	100	100	–	–	–
COc1cc(C)cc(Cl)c1C1=C(OC(=O)C(C)(C)C)C2=CCOCCN2C1=O [Ib-3-16]	–	80	90	90	90	–	–	–
COc1cc(C)cc(Cl)c1C1=C(O)C2CCOCCN2C1=O (centres unmarked) [Ia-1-8]	–	–	90	100	–	–	–	–
CCc1cc(C)cc(C)c1C1=C(O)C2=CCOCCN2C1=O [Ia-3-2]	–	–	–	–	–	–	100	100
CCc1cc(C)cc(CC)c1C1=C(OC(=O)OCCOC)C2CCOCCN2C1=O (centres unmarked) [Ib-1-5]	100	100	100	100	100	–	–	–
COc1cc(C)cc(Cl)c1C1=C(OC(C)=O)C2=CCOCCN2C1=O [Ib-3-13]	90	100	100	100	100	–	–	–
CCc1cc(C)cc(C)c1C1=C(OC(=O)C(C)(C)C)C2=CCOCCN2C1=O [Ib-3-7]	–	–	–	–	–	100	90	–
CCOC(=O)OC1=C(c2c(CC)cc(C)cc2CC)C(=O)N2CCOCC=C12 [Ib-3-2]	–	–	–	–	–	90	80	–
CCOC(=O)OC1=C(c2c(C)cc(Br)cc2C)C(=O)N2CCOCC=C12 [Ib-3-11]	–	–	–	–	–	90	80	–
Cc1cc(C)c(C2=C(OC(=O)C(C)(C)C)C3COCCCN3C2=O)c(C)c1 (centres unmarked) [Ib-2-4]	–	–	–	–	–	100	90	–
CCc1cc(C)cc(CC)c1C1=C(OC(=O)OC)C2COCCCN2C1=O (centres unmarked) [Ib-2-5]	–	–	–	–	–	100	100	–
CCOC(=O)OC1=C(c2c(Cl)cc(C)cc2OC)C(=O)N2CCOCCC12 (centres unmarked) [Ib-1-22]	100	100	90	100	100	–	–	–
CCc1cc(C)cc(C)c1C1=C(OC(=O)OC)C2=CCOCCN2C1=O [Ib-3-5]	–	–	100	80	–	90	90	–
CCOC(=O)OC1=C(c2c(CC)cc(Cl)cc2OC)C(=O)N2CCOCC=C12 [Ib-3-9]	–	–	–	–	–	100	90	–
CCOC(=O)OC1=C(c2c(CC)cc(C)cc2CC)C(=O)N2CCCOCC12 (centres unmarked) [Ib-2-6]	–	–	–	–	–	100	100	–
CC(=O)OC1=C(c2c(C)cc(C)cc2C)C(=O)N2CCCOCC12 (centres unmarked) [Ib-2-1]	–	–	–	–	–	100	100	–
CCc1cc(C)cc(CC)c1C1=C(OC(=O)C(C)(C)C)C2=CCOCCN2C1=O [Ib-3-3]	–	–	–	–	–	100	90	–
CCOC(=O)OC1=C(c2ccc(C)cc2OC)C(=O)N2CCOCCC12 (centres unmarked) [Ib-1-26]	–	–	90	90	–	–	–	–
